Usually IC50 stands for the concentration needed to halve the response being measured. Lower therefore signals greater potency in that assay.

Molecules are shown by their SMILES.

ROCK2, sequence (O75116 11-552): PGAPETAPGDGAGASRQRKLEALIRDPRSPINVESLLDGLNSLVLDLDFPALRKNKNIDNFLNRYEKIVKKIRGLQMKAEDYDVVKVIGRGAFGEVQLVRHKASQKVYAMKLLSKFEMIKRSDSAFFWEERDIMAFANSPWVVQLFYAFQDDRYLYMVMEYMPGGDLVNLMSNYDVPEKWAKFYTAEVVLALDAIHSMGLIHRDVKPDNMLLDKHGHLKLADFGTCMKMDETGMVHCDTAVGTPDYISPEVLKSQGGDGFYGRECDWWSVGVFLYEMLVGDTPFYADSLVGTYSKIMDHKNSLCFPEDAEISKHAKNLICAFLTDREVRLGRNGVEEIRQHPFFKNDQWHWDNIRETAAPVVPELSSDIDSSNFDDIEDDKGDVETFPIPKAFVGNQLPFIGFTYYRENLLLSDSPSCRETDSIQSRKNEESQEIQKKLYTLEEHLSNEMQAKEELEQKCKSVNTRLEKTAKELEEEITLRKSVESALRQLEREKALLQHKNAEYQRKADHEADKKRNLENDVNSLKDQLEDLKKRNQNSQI

This test concerns the target ROCK2 (Homo sapiens (Human), UniProt O75116). The experiment in a line: Rho Kinase Inhibition Assay (IMAP fluorescence polarization). It is filed as biochemical. The note with it: isolated enzyme, 10 μM ATP, 60 minutes at room temperature. Here is the method: Following the preincubation, 10 μM ATP was added to initiate the reaction. After 60 minutes at room temperature, Molecular Devices IMAP™ binding solution was added to bind phosphorylated substrate. After 30 minutes of incubation in the presence of the IMAP™ beads the fluorescence polarization was read and the ratio was reported as mP. IC50 results were calculated using the Prism software from Graphpad.
See Tian et al., Arch. Ophthalmol. […] Ophthalmol. Vis. […] Ophthalmol. […] Cytoskel. […] Ophthalmol. Vis. […] Ophthalmol. Vis.
For orientation: In fluorescence polarisation assays a small probe gives low polarisation when free and higher when bound to something large.
Consider `Nc1n[nH]c2ccc(NC3CCCN(Cc4ccccc4)C3)cc12` (stereo not drawn) [Compound 1.050, N5-(1-benzylpiperidin-3-yl)-1H-indazole-3,5-diamine], for which the IC50 came to 1040 nM.

Consider `CS(=O)(=O)Nc1cccc(CN2CCCC(Nc3ccc4[nH]ncc4c3)C2)c1` (stereo not drawn) [Compound 1.051, N-(3-((3-(1H-indazol-5-ylamino)piperidin-1-yl)methyl)phenyl)methanesulfonamide], for which the IC50 was 62.6 nM.

`c1cc2cc(CN3CCCC(Nc4ccc5[nH]ncc5c4)C3)ccc2o1` (stereo not drawn) [Compound 1.052, N-(1-(benzofuran-5-ylmethyl)piperidin-3-yl)-1H-indazol-5-amine] came in with an IC50 of 15.3 nM.

`c1cc2c(cc1CN1CCCC(Nc3ccc4[nH]ncc4c3)C1)OCCO2` (stereo not drawn) [Compound 1.053, N-(1-((2,3-dihydrobenzo[b][1,4]dioxin-6-yl)methyl)piperidin-3-yl)-1H-indazol-5-amine]: half-maximal inhibition (IC50) required 189 nM.

`c1cc2cc(CN3CCCC(Nc4ccc5[nH]ncc5c4)C3)ccc2s1` (stereo not drawn) [Compound 1.054, N-(1-(benzo[b]thiophen-5-ylmethyl)piperidin-3-yl)-1H-indazol-5-amine] had an IC50 of 132 nM.

`NC(=O)c1cccc(CN2CCCC(Nc3ccc4[nH]ncc4c3)C2)c1` (stereo not drawn) [Compound 1.055, 3-((3-(1H-indazol-5-ylamino)piperidin-1-yl)methyl)benzamide]: half-maximal inhibition (IC50) required 472 nM.

In turn, `NS(=O)(=O)c1cccc(CN2CCCC(Nc3ccc4[nH]ncc4c3)C2)c1` (stereo not drawn) [Compound 1.056, 3-((3-(1H-indazol-5-ylamino)piperidin-1-yl)methyl)benzenesulfonamide] yielded an IC50 of 435 nM.

`CC(C)(C)OC(=O)NCc1cccc(CN2CCCC(Nc3ccc4[nH]ncc4c3)C2)c1` (stereo not drawn) [Compound 1.057, tert-butyl 3-((3-(1H-indazol-5-ylamino)piperidin-1-yl)methyl)benzylcarbamate]: the IC50 was 194 nM.

With `Cc1ccc(CN2CCCC(Nc3ccc4[nH]ncc4c3)C2)cc1OCCO` (stereo not drawn) [Compound 1.058, 2-(5-((3-(1H-indazol-5-ylamino)piperidin-1-yl)methyl)-2-methylphenoxy)ethanol], the IC50 was found to be 47.5 nM. Compared with the last compound, the IC50 is about 4.1-fold lower.

Take `Cc1ccc(CN2CCCC(Nc3ccc4[nH]ncc4c3)C2)cc1O` (stereo not drawn) [Compound 1.059, 5-((3-(1H-indazol-5-ylamino)piperidin-1-yl)methyl)-2-methylphenol]: inhibition was half-maximal at 32 nM (IC50).

`CCOC(=O)COc1cccc(CN2CCCC(Nc3ccc4[nH]ncc4c3)C2)c1` (stereo not drawn) [Compound 1.060, ethyl 2-(3-((3-(1H-indazol-5-ylamino)piperidin-1-yl)methyl)phenoxy)acetate] yielded an IC50 of 87.2 nM.

The compound `NCc1cccc(CN2CCCC(Nc3ccc4[nH]ncc4c3)C2)c1` (stereo not drawn) [Compound 1.061, N-(1-(3-(aminomethyl)benzyl)piperidin-3-yl)-1H-indazol-5-amine] displayed an IC50 of 282 nM.

Compound `Clc1ccc(CN2CCC(Nc3ccc4[nH]ncc4c3)C2)cc1Cl` (stereo not drawn) [Compound 1.062, N-(1-(3,4-dichlorobenzyl)pyrrolidin-3-yl)-1H-indazol-5-amine] returned an IC50 of 155 nM.

Compound `FC(F)(F)c1cccc(CN2CCCC(Nc3ccc4[nH]ncc4c3)C2)c1` (stereo not drawn) [Compound 1.063, N-(1-(3-(trifluoromethyl)benzyl)piperidin-3-yl)-1H-indazol-5-amine] displayed a 50% inhibitory concentration (IC50) of 223 nM. This IC50 and that of the compound before are within 1.5-fold of each other.

The compound `FC(F)(F)c1cccc(CN2CCC(Nc3ccc4[nH]ncc4c3)C2)c1` (stereo not drawn) [Compound 1.064, N-(1-(3-(trifluoromethyl)benzyl)pyrrolidin-3-yl)-1H-indazol-5-amine] came in with an IC50 of 165 nM.

The compound `CCOc1cccc(CN2CCCC(Nc3ccc4[nH]ncc4c3)C2)c1` (stereo not drawn) [Compound 1.065, N-(1-(3-ethoxybenzyl)piperidin-3-yl)-1H-indazol-5-amine] returned an IC50 of 326 nM.

`Cc1cccc(CN2CCCC(Nc3ccc4[nH]ncc4c3)C2)c1` (stereo not drawn) [Compound 1.066, N-(1-(3-methylbenzyl)piperidin-3-yl)-1H-indazol-5-amine] came in with an IC50 of 232 nM.

The compound `COc1ccccc1CN1CCCC(Nc2ccc3[nH]ncc3c2)C1` (stereo not drawn) [Compound 1.067, N-(1-(2-methoxybenzyl)piperidin-3-yl)-1H-indazol-5-amine] yielded an IC50 of 1850 nM.

Turning to `Oc1cc(CN2CCCC(Nc3ccc4[nH]ncc4c3)C2)ccc1I` (stereo not drawn) [Compound 1.068, 5-((3-(1H-indazol-5-ylamino)piperidin-1-yl)methyl)-2-iodophenol], the IC50 was 660 nM.

In turn, `Clc1ccc(Oc2cccc(CN3CCCC(Nc4ccc5[nH]ncc5c4)C3)c2)cc1` (stereo not drawn) [Compound 1.069, N-(1-(3-(4-chlorophenoxy)benzyl)piperidin-3-yl)-1H-indazol-5-amine] returned an IC50 of 6050 nM.

`FC(F)(F)c1cccc(Oc2cccc(CN3CCCC(Nc4ccc5[nH]ncc5c4)C3)c2)c1` (stereo not drawn) [Compound 1.070, N-(1-(3-(3-(trifluoromethyl)phenoxy)benzyl)piperidin-3-yl)-1H-indazol-5-amine] showed an IC50 of 6680 nM. This IC50 and that of the compound before are within 1.5-fold of each other.

Consider `Brc1ccc(Br)c(CN2CCCC(Nc3ccc4[nH]ncc4c3)C2)c1` (stereo not drawn) [Compound 1.071, N-(1-(2,5-dibromobenzyl)piperidin-3-yl)-1H-indazol-5-amine], for which the IC50 amounted to 5590 nM.

For the compound `Fc1ccc(CN2CCC[C@H](Nc3ccc4[nH]ncc4c3)C2)cc1F` [Compound 1.072, (S)-N-(1-(3,4-difluorobenzyl)piperidin-3-yl)-1H-indazol-5-amine], the IC50 was found to be 58.5 nM.

Regarding `Fc1ccc(CN2CCC[C@@H](Nc3ccc4[nH]ncc4c3)C2)cc1F` [Compound 1.073, (R)-N-(1-(3,4-difluorobenzyl)piperidin-3-yl)-1H-indazol-5-amine], the IC50 was determined as 111 nM.

The compound `CSc1ccc(CN2CCC[C@@H](Nc3ccc4[nH]ncc4c3)C2)cc1` [Compound 1.074, (R)-N-(1-(4-(methylthio)benzyl)piperidin-3-yl)-1H-indazol-5-amine] returned an IC50 of 71.6 nM.

`CSc1ccc(CN2CCC[C@H](Nc3ccc4[nH]ncc4c3)C2)cc1` [Compound 1.075, (S)-N-(1-(4-(methylthio)benzyl)piperidin-3-yl)-1H-indazol-5-amine] had an IC50 of 74.5 nM. This IC50 and that of the compound before are within 1.5-fold of each other.

The compound `C#Cc1ccc(CN2CCC[C@@H](Nc3ccc4[nH]ncc4c3)C2)cc1` [Compound 1.076, (R)-N-(1-(4-ethynylbenzyl)piperidin-3-yl)-1H-indazol-5-amine] displayed an IC50 of 111 nM.

In turn, `C#Cc1ccc(CN2CCC[C@H](Nc3ccc4[nH]ncc4c3)C2)cc1` [Compound 1.077, (S)-N-(1-(4-ethynylbenzyl)piperidin-3-yl)-1H-indazol-5-amine] had a half-maximal inhibitory concentration (IC50) of 53.1 nM.

The compound `Cc1ccc(CN2CCC[C@H](Nc3ccc4[nH]ncc4c3)C2)cc1` [Compound 1.078, (S)-N-(1-(4-methylbenzyl)piperidin-3-yl)-1H-indazol-5-amine] returned an IC50 of 63.1 nM.

Turning to `COc1ccc(CN2CCC[C@H](Nc3ccc4[nH]ncc4c3)C2)cc1` [Compound 1.079, (S)-N-(1-(4-methoxybenzyl)piperidin-3-yl)-1H-indazol-5-amine], the IC50 turned out to be 102 nM.

For the compound `Clc1ccc(CN2CCC[C@H](Nc3ccc4[nH]ncc4c3)C2)cc1Cl` [Compound 1.080, (S)-N-(1-(3,4-dichlorobenzyl)piperidin-3-yl)-1H-indazol-5-amine], the half-maximal inhibitory concentration (IC50) turned out to be 162 nM.

`Clc1ccc(CN2CCC[C@H](Nc3ccc4[nH]ncc4c3)C2)cc1` [Compound 1.081, (S)-N-(1-(4-chlorobenzyl)piperidin-3-yl)-1H-indazol-5-amine] showed an IC50 of 30.1 nM. This IC50 lies about 5.4-fold lower than the previous one.

The compound `c1cc2ccc(CN3CCCC(Nc4ccc5[nH]ncc5c4)C3)cc2[nH]1` (stereo not drawn) [Compound 1.082, N-(1-((1H-indol-6-yl)methyl)piperidin-3-yl)-1H-indazol-5-amine] came in with an IC50 of 30.4 nM.

Take `C#Cc1ccc(CN2CCCC(Nc3ccc4[nH]ncc4c3)C2)cc1O` (stereo not drawn) [Compound 1.083, 5-((3-(1H-indazol-5-ylamino)piperidin-1-yl)methyl)-2-ethynylphenol]: the IC50 was determined as 7310 nM.

Compound `OCCCOc1cccc(CN2CCCC(Nc3ccc4[nH]ncc4c3)C2)c1` (stereo not drawn) [Compound 1.084, 3-(3-((3-(1H-indazol-5-ylamino)piperidin-1-yl)methyl)phenoxy)propan-1-ol] displayed an IC50 of 274 nM.

Compound `NCCOc1cccc(CN2CCCC(Nc3ccc4[nH]ncc4c3)C2)c1` (stereo not drawn) [Compound 1.085, N-(1-(3-(2-aminoethoxy)benzyl)piperidin-3-yl)-1H-indazol-5-amine] yielded an IC50 of 1680 nM.

In turn, `O=C(O)COc1cccc(CN2CCCC(Nc3ccc4[nH]ncc4c3)C2)c1` (stereo not drawn) [Compound 1.086, 2-(3-((3-(1H-indazol-5-ylamino)piperidin-1-yl)methyl)phenoxy)acetic acid] came in with an IC50 of 310 nM.

For `CS(=O)(=O)Nc1cccc(CN2CCC(Nc3ccc4[nH]ncc4c3)C2)c1` (stereo not drawn) [Compound 1.087, N-(3-((3-(1H-indazol-5-ylamino)pyrrolidin-1-yl)methyl)phenyl)methanesulfonamide], 280 nM corresponded to half-maximal inhibition (IC50).

Compound `OCCOc1cccc(CN2CCC(Nc3ccc4[nH]ncc4c3)C2)c1` (stereo not drawn) [Compound 1.088, 2-(3-((3-(1H-indazol-5-ylamino)pyrrolidin-1-yl)methyl)phenoxy)ethanol] had an IC50 of 651 nM. Compared with the last compound, the IC50 is about 2.3-fold higher.

`Nc1cc(CN2CCCC(Nc3ccc4[nH]ncc4c3)C2)ccc1Cl` (stereo not drawn) [Compound 1.089, N-(1-(3-amino-4-chlorobenzyl)piperidin-3-yl)-1H-indazol-5-amine] showed an IC50 of 29.4 nM.

The compound `OCCOc1cccc(CN2CCC[C@H](Nc3ccc4[nH]ncc4c3)C2)c1` [Compound 1.090, (S)-2-(3-((3-(1H-indazol-5-ylamino)piperidin-1-yl)methyl)phenoxy)ethanol] displayed an IC50 of 354 nM.

In turn, `CS(=O)(=O)Nc1cccc(CN2CCC[C@H](Nc3ccc4[nH]ncc4c3)C2)c1` [Compound 1.091, (S)-N-(3-((3-(1H-indazol-5-ylamino)piperidin-1-yl)methyl)phenyl)methanesulfonamide] registered a concentration for half-maximal inhibition (IC50) of 49.4 nM.

(Values after patent US8604218B2, “Cytoskeletal active rho kinase inhibitor compounds, composition and use” (Inspire Pharmaceuticals, Inc., priority 2006, dated 2013).)
